Assay [1] addresses human immunoproteasome (LMP7) (Homo sapiens (Human), UniProt P28062). As to the kind of experiment: Determination of LMP7 activity (fluorescence intensity assay, Suc-LLVY-AMC). The note with it: for Selectivity LMP7 vs Beta5: LMP7 versus Beta5; for IC50: purified human immunoproteasome 0.25 nM, Suc-LLVY-AMC 40 μM. Format: biochemical. A digest of the protocol: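 0.25 nM purified human immunoproteasome preincubated 20 min at 25 °C with serially diluted compounds in 50 mM Tris pH 7.4, 0.03% SDS, 1 mM EDTA, 1% DMSO. Reaction started with 40 μM Suc-LLVY-AMC, run 60 min at 37 °C. Fluorescence read at ex 350/em 450 nm.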

For assay [2], the target named is human constitutive proteasome (Beta5) (Homo sapiens (Human), UniProt P28074). The assay can be described thus: Determination of Beta5 activity (fluorescence intensity assay, Suc-LLVY-AMC). It is filed as biochemical. The note with it: purified human constitutive proteasome 1.25 nM, Suc-LLVY-AMC 40 μM. A digest of the protocol: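 Purified constitutive proteasome (1.25 nM) was preincubated with compounds 20 min at 25 °C in 50 mM Tris pH 7.4, 0.03% SDS, 1 mM EDTA, 1% DMSO. Suc-LLVY-AMC (40 μM) was then added for 60 min at 37 °C. AMC fluorescence was read at ex 350/em 450 nm.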

Results on eleven compounds are retold here after patent US10294246B2, “Substituted boronic acids and boronate esters as immunoproteasome inhibitors” (MERCK PATENT GMBH, priority 2014, dated 2019).

The term IC50 denotes the concentration needed to halve the response being measured. A lower IC50 goes with inhibition by little substance. Take `Cc1cccc2c(C[C@H](NC(=O)Cc3ccccc3C#N)B(O)O)coc12` [Compound No. 104, [(1R)-1-[[2-(2-cyanophenyl)acetyl]amino]-2-(7-methylbenzofuran-3-yl)ethyl]boronic acid]: the “Selectivity LMP7 vs Beta5” value in assay [1] is listed as “+++++ (Selectivity ≥ 100)”. In addition, the IC50 in assay [1] was less than 50 nM; in assay [2], 500 to 5000 nM.
For `O=C(Cc1cc(F)c(F)c(F)c1)N[C@@H](Cc1coc2ccccc12)B(O)O` [Compound No. 22, [(1R)-2-(benzofuran-3-yl)-1-[[2-(3,4,5-trifluorophenyl)acetyl]amino]-ethyl]boronic acid], in that order: “++++ (70 ≤ Selectivity < 100)”, less than 50 nM and 50 to 500 nM.
`O=C(N[C@H](Cc1coc2ccccc12)B(O)O)[C@H](CO)c1ccccc1` [Compound No. 56, [(1S)-2-(benzofuran-3-yl)-1-[[(2S)-3-hydroxy-2-phenyl-propanoyl]-amino]ethyl]boronic acid]: the “Selectivity LMP7 vs Beta5” value in assay [1] is reported as “+++++ (Selectivity ≥ 100)”. The IC50 was 50 to 500 nM in assay [1] and more than 5000 nM in assay [2].
For `O=C(Cc1ccccc1OCCO)N[C@@H](Cc1coc2ccccc12)B(O)O` [Compound No. 50, [(1R)-2-(benzofuran-3-yl)-1-[[2-[2-(2-hydroxyethoxy)phenyl]acetyl]-amino]ethyl]boronic acid], in that order: “+++ (50 ≤ Selectivity < 70)”, less than 50 nM and 500 to 5000 nM.
For `COc1cccc(OC)c1CC(=O)N[C@@H](Cc1ccc(C)cc1C)B(O)O` [Compound No. 42, [(1R)-1-[[2-(2,6-dimethoxyphenyl)acetyl]amino]-2-(2,4-dimethylphenyl)ethyl]boronic acid], in assay [1], the “Selectivity LMP7 vs Beta5” value is on record as “++ (10 ≤ Selectivity < 50)” and the IC50 is 50 to 500 nM. In assay [2], this compound returned an IC50 of more than 5000 nM.
For `O=C(Cc1ccc(-c2ccccc2)cc1)N[C@@H](Cc1coc2ccccc12)B(O)O` [Compound No. 67, [(1R)-2-(benzofuran-3-yl)-1-[[2-(4-phenylphenyl)acetyl]amino]ethyl]-boronic acid], in assay [1], the “Selectivity LMP7 vs Beta5” value was “++ (10 ≤ Selectivity < 50)” and the IC50 is less than 50 nM. In assay [2], this compound registered an IC50 of 500 to 5000 nM.
For `Cc1ccc(C[C@H](NC(=O)[C@@H](O)c2ccccc2)B(O)O)cc1` [Compound No. 17, [(1R)-1-[[(2S)-2-hydroxy-2-phenyl-acetyl]amino]-2-(p-tolyl)ethyl]-boronic acid], in that order: “++ (10 ≤ Selectivity < 50)”, 50 to 500 nM and more than 5000 nM.
Take `CO[C@@H](C(=O)N[C@@H](Cc1coc2ccccc12)B(O)O)c1ccccc1` [Compound No. 34, [(1R)-2-(benzofuran-3-yl)-1-[[(2R)-2-methoxy-2-phenyl-acetyl]amino]-ethyl]boronic acid]: the “Selectivity LMP7 vs Beta5” value in assay [1] is on record as “+++++ (Selectivity ≥ 100)”. The IC50 in assay [1] was less than 50 nM; in assay [2], 500 to 5000 nM.
For `COc1cccc(CC(=O)N[C@@H](Cc2coc3ccccc23)B(O)O)n1` [Compound No. 12, [(1R)-2-(benzofuran-3-yl)-1-[[2-(6-methoxy-2-pyridyl)acetyl]amino]-ethyl]boronic acid], in that order: “+++ (50 ≤ Selectivity < 70)”, less than 50 nM and 50 to 500 nM.
`Cc1ccc(C[C@H](NC(=O)Cc2ccccc2)B(O)O)c(C)c1` [Compound No. 29, [(1R)-2-(2,4-dimethylphenyl)-1-[(2-phenylacetyl)amino]ethyl]boronic acid]: the “Selectivity LMP7 vs Beta5” value in assay [1] is “+++++ (Selectivity ≥ 100)”. Moreover, the results for the IC50 in assay [1] and in assay [2] were 50 to 500 nM and more than 5000 nM, respectively.
For `CCOC(=O)Nc1cccc(CC(=O)N[C@@H](Cc2coc3ccccc23)B(O)O)c1` [Compound No. 72, [(1R)-2-(benzofuran-3-yl)-1-[[2-[3-(ethoxycarbonylamino)phenyl]-acetyl]amino]ethyl]boronic acid], in that order: “+++ (50 ≤ Selectivity < 70)”, less than 50 nM and 500 to 5000 nM.
